Data taken from patent US20070249670A1, “Glycogen Phosphorylase Inhibitor Compounds and Pharmaceutical Compositions Thereof” (SMITHKLINE BEECHAM CORPORATION, priority 2004, published 2007).
pIC50: −log10 of the molar value.

biological target: T1, human liver glycogen phosphorylase a (HLGPa) (Homo sapiens, UniProt P06737); assay: Human liver glycogen phosphorylase a enzymatic activity assay (coupled, fluorescent resorufin readout, with and without 10 mM glucose); format: biochemical; conditions: human liver glycogen phosphorylase a enzymatic activity assay
T1 construct: creating a full-length cDNA fused at the 5′ end to codons for methionine-glycine-alanine-histidine; 6xHis tag (leader Met-Gly-Ala-His6-Gly-Gly) (N); made in house; host or cells: E. coli (bacterial expression plasmid pTXK1007LTev)
T1 sequence (P06737 2-847 limits assumed): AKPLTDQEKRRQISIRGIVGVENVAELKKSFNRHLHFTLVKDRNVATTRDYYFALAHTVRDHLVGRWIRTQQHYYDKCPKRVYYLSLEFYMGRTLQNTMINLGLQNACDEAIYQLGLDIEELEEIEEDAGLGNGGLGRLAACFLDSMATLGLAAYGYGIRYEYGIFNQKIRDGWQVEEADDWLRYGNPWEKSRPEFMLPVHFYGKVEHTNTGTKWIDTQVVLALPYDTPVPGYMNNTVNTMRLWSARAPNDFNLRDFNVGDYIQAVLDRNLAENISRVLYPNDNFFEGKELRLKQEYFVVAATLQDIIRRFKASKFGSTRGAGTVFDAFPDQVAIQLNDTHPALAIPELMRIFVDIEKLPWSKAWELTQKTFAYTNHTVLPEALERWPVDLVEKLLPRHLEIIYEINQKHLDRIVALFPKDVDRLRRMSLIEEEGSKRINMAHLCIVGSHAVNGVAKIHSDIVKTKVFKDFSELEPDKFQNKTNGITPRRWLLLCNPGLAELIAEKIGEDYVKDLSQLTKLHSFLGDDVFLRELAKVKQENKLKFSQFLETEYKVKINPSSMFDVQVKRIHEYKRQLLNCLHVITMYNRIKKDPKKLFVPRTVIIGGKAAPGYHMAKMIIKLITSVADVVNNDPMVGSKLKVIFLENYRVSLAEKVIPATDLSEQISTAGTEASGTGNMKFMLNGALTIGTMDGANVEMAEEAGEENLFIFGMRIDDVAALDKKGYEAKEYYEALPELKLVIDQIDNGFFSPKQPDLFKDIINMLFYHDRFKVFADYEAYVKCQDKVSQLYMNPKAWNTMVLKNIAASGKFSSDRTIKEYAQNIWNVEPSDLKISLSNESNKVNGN

In order of rising pIC50:
1. O=C(Nc1sc(Br)cc1C(=O)O)Nc1c(Cl)cccc1Cl [Example 413, 5-bromo-2-({[(2,6-dichlorophenyl)amino]carbonyl}amino)-3-thiophenecarboxylic acid]  4.97
2. Cn1cc(-c2cc(C(=O)O)c(NC(=O)Nc3c(Cl)cccc3Cl)s2)cn1 [Example 422, 2-({[(2,6-dichlorophenyl)amino]carbonyl}amino)-5-(1-methyl-1H-pyrazol-4-yl)-3-thiophenecarboxylic acid]  5.20
3. Cc1cc(F)ccc1-c1cc(C(=O)O)c(NC(=O)Nc2c(Cl)cccc2Cl)s1 [Example 420, 2-({[(2,6-dichlorophenyl)amino]carbonyl}amino)-5-(4-fluoro-2-methylphenyl)-3-thiophenecarboxylic acid]  5.25
4. COc1cccc(-c2cc(C(=O)O)c(NC(=O)Nc3c(Cl)cccc3Cl)s2)c1 [Example 416, 2-({[(2,6-dichlorophenyl)amino]carbonyl}amino)-5-[3-(methyloxy)phenyl]-3-thiophenecarboxylic acid]  5.38
5. O=C(Nc1sc(-c2ccc(F)cc2)cc1C(=O)O)Nc1c(Cl)cccc1Cl [Example 418, 2-({[(2,6-dichlorophenyl)amino]carbonyl}amino)-5-(4-fluorophenyl)-3-thiophenecarboxylic acid]  5.53
6. O=C(Nc1sc(-c2cccnc2)cc1C(=O)O)Nc1c(Cl)cccc1Cl [Example 414, 2-({[(2,6-dichlorophenyl)amino]carbonyl}amino)-5-(3-pyridinyl)-3-thiophenecarboxylic acid]  5.57
7. COc1ccc(-c2cc(NC(=O)Nc3c(Cl)cc(OC(F)(F)F)cc3Cl)c(C(=O)O)s2)cc1 [Example 432, 3-{[({2,6-dichloro-4-[(trifluoromethyl)oxy]phenyl}amino)carbonyl]amino}-5-[4-(methyloxy)phenyl]-2-thiophenecarboxylic acid]  5.57
8. O=C(Nc1cc(-c2ccc(OC(F)(F)F)cc2)sc1C(=O)O)Nc1c(Cl)cccc1Cl [Example 434, 3-({[(2,6-dichlorophenyl)amino]carbonyl}amino)-5-{4-[(trifluoromethyl)oxy]phenyl}-2-thiophenecarboxylic acid]  5.67
9. Cc1cc(F)ccc1-c1cc(C(=O)N[C@H](C(=O)O)C2CCCCC2)c(NC(=O)Nc2c(Cl)cccc2Cl)s1 [Example 421, (2S)-cyclohexyl({[2-({[(2,6-dichlorophenyl)amino]carbonyl}amino)-5-(4-fluoro-2-methylphenyl)-3-thienyl]carbonyl}amino)ethanoic acid]  5.86
10. COc1ccc(-c2cc(C(=O)O)c(NC(=O)Nc3c(Cl)cc(OC(F)(F)F)cc3Cl)s2)cc1 [Example 426, 2-{[({2,6-dichloro-4-[(trifluoromethyl)oxy]phenyl}amino)carbonyl]amino}-5-[4-(methyloxy)phenyl]-3-thiophenecarboxylic acid]  5.88
11. O=C(Nc1sc(-c2ccc(OC(F)(F)F)cc2)cc1C(=O)O)Nc1c(Cl)cc(OC(F)(F)F)cc1Cl [Example 428, 2-{[({2,6-dichloro-4-[(trifluoromethyl)oxy]phenyl}amino)carbonyl]amino}-5-{4-[(trifluoromethyl)oxy]phenyl}-3-thiophenecarboxylic acid]  5.91
12. COc1ccc(-c2cc(NC(=O)Nc3c(Cl)cccc3Cl)c(C(=O)O)s2)cc1 [Example 408, 3-({[(2,6-dichlorophenyl)amino]carbonyl}amino)-5-[4-(methyloxy)phenyl]-2-thiophenecarboxylic acid]  5.94
13. COc1ccc(-c2cc(C(=O)O)c(NC(=O)Nc3c(Cl)cccc3Cl)s2)cc1 [Example 412, 2-({[(2,6-dichlorophenyl)amino]carbonyl}amino)-5-[4-(methyloxy)phenyl]-3-thiophenecarboxylic acid]  5.98
14. O=C(Nc1cc(-c2ccccc2)sc1C(=O)O)Nc1c(Cl)cccc1Cl [Example 410, 3-({[(2,6-dichlorophenyl)amino]carbonyl}amino)-5-phenyl-2-thiophenecarboxylic acid]  6.05
15. O=C(Nc1sc(-c2cccnc2)cc1C(=O)N[C@H](C(=O)O)C1CCCCC1)Nc1c(Cl)cccc1Cl [Example 415, (2S)-cyclohexyl({[2-({[(2,6-dichlorophenyl)amino]carbonyl}amino)-5-(3-pyridinyl)-3-thienyl]carbonyl}amino)ethanoic acid]  6.11
16. Cc1cc(C)c(NC(=O)Nc2sc(-c3ccc(OC(F)(F)F)cc3)cc2C(=O)O)c(C)c1 [Example 430, 5-{4-[(trifluoromethyl)oxy]phenyl}-2-({[(2,4,6-trimethylphenyl)amino]carbonyl}amino)-3-thiophenecarboxylic acid]  6.13
17. O=C(Nc1sc(-c2ccc(F)cc2)cc1C(=O)N[C@H](C(=O)O)C1CCCCC1)Nc1c(Cl)cccc1Cl [Example 419, (2S)-cyclohexyl({[2-({[(2,6-dichlorophenyl)amino]carbonyl}amino)-5-(4-fluorophenyl)-3-thienyl]carbonyl}amino)ethanoic acid]  6.22
18. COc1cccc(-c2cc(C(=O)N[C@H](C(=O)O)C3CCCCC3)c(NC(=O)Nc3c(Cl)cccc3Cl)s2)c1 [Example 417, (2S)-cyclohexyl[({2-({[(2,6-dichlorophenyl)amino]carbonyl}amino)-5-[3-(methyloxy)phenyl]-3-thienyl}carbonyl)amino]ethanoic acid]  6.44
19. Cc1cc(C)c(NC(=O)Nc2sc(-c3ccc(OC(F)(F)F)cc3)cc2C(=O)N[C@H](C(=O)O)C2CCCCC2)c(C)c1 [Example 431, (2S)-cyclohexyl({[5-{4-[(trifluoromethyl)oxy]phenyl}-2-({[(2,4,6-trimethylphenyl)amino]carbonyl}amino)-3-thienyl]carbonyl}amino)ethanoic acid]  6.48
20. COc1ccc(-c2cc(C(=O)O)c(NC(=O)Nc3c(C)cc(C)cc3C)s2)cc1 [Example 424, 5-[4-(methyloxy)phenyl]-2-({[(2,4,6-trimethylphenyl)amino]carbonyl}amino)-3-thiophenecarboxylic acid]  6.54
21. Cn1cc(-c2cc(C(=O)N[C@H](C(=O)O)C3CCCCC3)c(NC(=O)Nc3c(Cl)cccc3Cl)s2)cn1 [Example 423, (2S)-cyclohexyl({[2-({[(2,6-dichlorophenyl)amino]carbonyl}amino)-5-(1-methyl-1H-pyrazol-4-yl)-3-thienyl]carbonyl}amino)ethanoic acid]  6.59
22. O=C(Nc1cc(-c2ccccc2)sc1C(=O)N[C@H](C(=O)O)C1CCCCC1)Nc1c(Cl)cccc1Cl [Example 411, (2S)-cyclohexyl({[3-({[(2,6-dichlorophenyl)amino]carbonyl}amino)-5-phenyl-2-thienyl]carbonyl}amino)ethanoic acid]  6.92
23. O=C(Nc1sc(-c2ccc(OC(F)(F)F)cc2)cc1C(=O)N[C@H](C(=O)O)C1CCCCC1)Nc1c(Cl)cc(OC(F)(F)F)cc1Cl [Example 429, (2S)-cyclohexyl{[(2-{[({2,6-dichloro-4-[(trifluoromethyl)oxy]phenyl}amino)carbonyl]amino}-5-{4-[(trifluoromethyl)oxy]phenyl}-3-thienyl)carbonyl]amino}ethanoic acid]  7.02
24. COc1ccc(-c2cc(NC(=O)Nc3c(Cl)cccc3Cl)c(C(=O)N[C@H](C(=O)O)C3CCCCC3)s2)cc1 [Example 409, (2S)-cyclohexyl[({3-({[(2,6-dichlorophenyl)amino]carbonyl}amino)-5-[4-(methyloxy)phenyl]-2-thienyl}carbonyl)amino]ethanoic acid]  7.03
25. COc1ccc(-c2cc(NC(=O)Nc3c(Cl)cc(OC(F)(F)F)cc3Cl)c(C(=O)N[C@H](C(=O)O)C3CCCCC3)s2)cc1 [Example 433, (2S)-cyclohexyl[({3-{[({2,6-dichloro-4-[(trifluoromethyl)oxy]phenyl}amino)carbonyl]amino}-5-[4-(methyloxy)phenyl]-2-thienyl}carbonyl)amino]ethanoic acid]  7.10
26. COc1ccc(-c2cc(C(=O)N[C@H](C(=O)O)C3CCCCC3)c(NC(=O)Nc3c(Cl)cc(OC(F)(F)F)cc3Cl)s2)cc1 [Example 427, (2S)-cyclohexyl[({2-{[({2,6-dichloro-4-[(trifluoromethyl)oxy]phenyl}amino)carbonyl]amino}-5-[4-(methyloxy)phenyl]-3-thienyl}carbonyl)amino]ethanoic acid]  7.57
27. COc1ccc(-c2cc(C(=O)N[C@H](C(=O)O)C3CCCCC3)c(NC(=O)Nc3c(C)cc(C)cc3C)s2)cc1 [Example 425, (2S)-cyclohexyl({[5-[4-(methyloxy)phenyl]-2-({[(2,4,6-trimethylphenyl)amino]carbonyl}amino)-3-thienyl]carbonyl}amino)ethanoic acid]  7.80
